US7709466B2, “Pyridazinone derivatives, methods for their production and their use as pharmaceuticals” (Sanofi-Aventis Deutschland GmbH, priority 2004, dated 2010)

Target: GSK-3β (Homo sapiens, UniProt P49841)
Assay: GSK-3β activity, AlphaScreen technology, determination of IC50-values
Format: biochemical
Settings: human recombinant enzyme, primed glycogen synthase substrate peptide, 10 μM ATP, 60 min at room temperature, triplicate; read-out: GSK3β (μmol)
Experimental: Functional Measurements for Determination of IC50-Values
GSK-3βGSK-β activity is measured using human recombinant GSK-β and a primed (pre-phosphorylated) substrate peptide (derived from glycogen synthase and containing the phosphorylation sites 3a, b, and c) on basis of the AlphaScreen technology in 384-well plate format (small volume plate, white, GREINER). In a final volume of 11 μl, 2 μl of compound (1 nM-[…] in kinase buffer, DMSO (dimethylsulfoxide) kept constant at 0.9%), 2 μl of GSK-βsolution (0.18 nM) and 2 μl of biot. phospho-glycogen synthase peptide (34 nM) in kinase buffer (20 mM Hepes, pH 7.4, 10 mM MgCl2, […] (ethylenediaminotetraacetate), 1 mM DTT (dithiotriol), 0.1 mg/ml BSA (bovine serum albumin), 10 μM ATP (adenosinetriphosphate)) are incubated at room temperature for 60 min.

Sequence of GSK-3β (P49841 whole entry): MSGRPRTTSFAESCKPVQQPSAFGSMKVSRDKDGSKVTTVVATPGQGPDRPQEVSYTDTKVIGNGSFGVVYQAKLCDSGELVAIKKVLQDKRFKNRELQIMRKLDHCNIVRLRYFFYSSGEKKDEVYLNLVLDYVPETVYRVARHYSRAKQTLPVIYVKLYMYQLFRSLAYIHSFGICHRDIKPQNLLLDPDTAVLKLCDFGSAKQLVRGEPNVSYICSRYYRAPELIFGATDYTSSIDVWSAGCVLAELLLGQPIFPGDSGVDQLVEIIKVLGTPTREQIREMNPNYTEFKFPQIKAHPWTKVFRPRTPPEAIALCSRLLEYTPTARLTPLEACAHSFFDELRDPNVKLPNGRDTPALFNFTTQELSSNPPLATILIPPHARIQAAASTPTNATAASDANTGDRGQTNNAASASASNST

For Cc1cc(-c2cc(-c3cc4ccccc4[nH]3)c(=O)[nH]n2)cc(C)c1O [Example 6, 6-(4-Hydroxy-3,5-dimethyl-phenyl)-4-(1H-indol-2-yl)-2H-pyridazin-3-one], which IC50 is on record?
Its IC50 is 590 nM.

With O=c1[nH]nc(-c2ccncc2)cc1-c1cc2ccc(CNC3CC3)cc2[nH]1 [Example 87, 4-(6-Cyclopropylaminometh-yl-1H-indol-2-yl)-6-pyridin-4-yl-2H-pyridazin-3-one] as the compound, how does the IC50 read?
Its IC50 is 14 nM.

How did the IC50 turn out when O=c1[nH]nc(-c2ccncc2)cc1-c1cc2ccc(CN3CCN(C4CC4)CC3)cc2[nH]1 [Example 65, 4-[6-(4-Cyclopropyl-piperazin-1-ylmethyl)-1H-indol-2-yl]-6-pyridin-4-yl-2H-pyridazin-3-one] was run?
Its IC50 is 4 nM.

For O=c1[nH]nc(-c2ccn[nH]2)cc1-c1cc2ccccc2[nH]1 [Example 147, 4-(1H-Indol-2-yl)-6-(2H-pyrazol-3-yl)-2H-pyridazin-3-one], which IC50 is on record?
The IC50 was 2000 nM.

For CN(Cc1ccc2cc(-c3cc(-c4ccncc4)n[nH]c3=O)[nH]c2c1)C1CCN(C2CC2)CC1 [Example 89, 4-(6-{[(1-Cyclopropyl-piperidin-4-yl)-methyl-amino]-methyl}-1H-indol-2-yl)-6-pyridin-4-yl-2H-pyridazin-3-one], which IC50 is on record?
The IC50 was 12 nM.

With Cn1cc(-c2c(-c3cc(-c4ccncc4)n[nH]c3=O)[nH]c3ccccc23)cn1 [Example 133, 4-[3-(1-Methyl-1H-pyrazol-4-yl)-1H-indol-2-yl]-6-pyridin-4-yl-2H-pyridazin-3-one] as the compound, how does the IC50 read?
The IC50 was 7 nM.

For O=c1[nH]nc(-c2ccncc2)cc1-c1[nH]c2ccccc2c1C1CC1 [Example 118, 4-(3-Cyclopropyl-1H-indol-2-yl)-6-pyridin-4-yl-2H-pyridazin-3-one], which IC50 is on record?
The IC50 was 11 nM.

Which IC50 does the source give for CN1CCN(Cc2ccc3cc(-c4cc(-c5cccc(O)c5)n[nH]c4=O)[nH]c3c2)CC1 [Example 156, 6-(3-Hydroxy-phenyl)-4-[6-(4-methyl-piperazin-1-ylmethyl)-1H-indol-2-yl]-2H-pyridazin-3-one] here?
Its IC50 is 21 nM.

O=c1[nH]nc(-c2ccncc2)cc1-c1[nH]c2ccccc2c1CN1CCOCC1 [Example 11, 4-(3-Morpholin-4-ylmethyl-1H-indol-2-yl)-6-pyridin-4-yl-2H-pyridazin-3-one] was tested. Which IC50 did it give?
Its IC50 is 102 nM.

Which IC50 does the source give for COc1ccc2[nH]c(-c3cc(-c4ccncc4)n[nH]c3=O)cc2n1 [Example 116, 4-(5-Methoxy-1H-pyrrolo[3,2-b]pyridin-2-yl)-6-pyridin-4-yl-2H-pyridazin-3-one] here?
Its IC50 is 7 nM.

How did the IC50 turn out when O=C(O)[C@@H]1CCCN1Cc1ccc2cc(-c3cc(-c4ccncc4)n[nH]c3=O)[nH]c2c1 [Example 74, (S)-1-[2-(3-Oxo-6-pyridin-4-yl-2,3-dihydro-pyridazin-4-yl)-1H-indol-6-ylmethyl]-pyrrolidine-2-carboxylic acid] was run?
The IC50 was 10 nM.

For CC(NC1CCN(C2CC2)CC1)c1ccc2cc(-c3cc(-c4ccncc4)n[nH]c3=O)[nH]c2c1 (stereo not shown) [Example 165, 4-{6-[1-(1-Cyclopropyl-piperidin-4-ylamino)-ethyl]-1H-indol-2-yl}-6-pyridin-4-yl-2H-pyridazin-3-one], which IC50 is on record?
The IC50 was 18 nM.

With Cn1cc(-c2cc(-c3cc4ccccc4[nH]3)c(=O)[nH]n2)cn1 [Example 126, 4-(1H-Indol-2-yl)-6-(1-methyl-1H-pyrazol-4-yl)-2H-pyridazin-3-one] as the compound, how does the IC50 read?
The IC50 was 1500 nM.

Which IC50 does the source give for Cc1cc(-c2cc(-c3[nH]c4ccccc4c3-c3c[nH]c(=O)[nH]c3=O)c(=O)[nH]n2)cc(C)c1O [Example 176, 5-{2-[6-(4-Hydroxy-3,5-dimethyl-phenyl)-3-oxo-2,3-dihydro-pyridazin-4-yl]-1H-indol-3-yl}-1H-pyrimidine-2,4-dione] here?
Its IC50 is 78 nM.

How did the IC50 turn out when Cc1cc(-c2cc(-c3cc4ncccc4[nH]3)c(=O)[nH]n2)cc(C)c1O [Example 180, 6-(4-Hydroxy-3,5-dimethyl-phenyl)-4-(1H-pyrrolo[3,2-b]pyridin-2-yl)-2H-pyridazin-3-one] was run?
Its IC50 is 18 nM.

With O=c1[nH]nc(-c2ccncc2)cc1-c1[nH]c2ccccc2c1Cl [Example 26, 4-(3-Chloro-1H-indol-2-yl)-6-pyridin-4-yl-2H-pyridazin-3-one] as the compound, how does the IC50 read?
The IC50 was 25 nM.
